Active and inactive are the calls of the source.
Legend:
[1] = tested on: Streptococcus sp. 'group A'; assay: Streptococcus pyogenes SK(-)GAS viability under kanamycin – luminescence, BacTiterGlo, confirmation, counter-screen for streptokinase expression inhibitor project, dose response (AID 1900); assay type: functional, organism-based
[2] = target: T1, Streptokinase A (Streptococcus pyogenes serotype M1, UniProt P10520); assay: viability-normalized secreted streptokinase activity reduction – plasminogen activation absorbance, OD405, dose response (AID 1914); assay type: functional, Streptococcus pyogenes M1 GAS;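 further: secreted streptokinase activity via plasminogen activation per viability signal from cell pellet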
T1 sequence (P10520 whole entry): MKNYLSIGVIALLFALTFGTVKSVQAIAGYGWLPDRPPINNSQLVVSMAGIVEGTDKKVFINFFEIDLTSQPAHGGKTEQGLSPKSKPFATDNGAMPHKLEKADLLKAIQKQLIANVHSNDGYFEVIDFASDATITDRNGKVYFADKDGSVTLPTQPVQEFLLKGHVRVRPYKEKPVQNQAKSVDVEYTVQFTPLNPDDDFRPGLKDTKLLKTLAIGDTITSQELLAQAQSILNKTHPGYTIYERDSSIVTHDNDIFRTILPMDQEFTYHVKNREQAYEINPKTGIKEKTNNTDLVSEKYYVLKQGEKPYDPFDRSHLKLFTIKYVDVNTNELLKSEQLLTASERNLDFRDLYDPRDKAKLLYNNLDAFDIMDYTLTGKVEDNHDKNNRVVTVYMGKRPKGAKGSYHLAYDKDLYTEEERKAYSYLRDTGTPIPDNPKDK

[3] = target: T2, Calpain-2 catalytic subunit (Sus scrofa, UniProt P43367); assay: m-calpain protease blockers, concentration series – biochemical, fluorogenic peptide substrate, dose response (AID 1420); assay type: functional
T2 sequence (P43367 whole entry): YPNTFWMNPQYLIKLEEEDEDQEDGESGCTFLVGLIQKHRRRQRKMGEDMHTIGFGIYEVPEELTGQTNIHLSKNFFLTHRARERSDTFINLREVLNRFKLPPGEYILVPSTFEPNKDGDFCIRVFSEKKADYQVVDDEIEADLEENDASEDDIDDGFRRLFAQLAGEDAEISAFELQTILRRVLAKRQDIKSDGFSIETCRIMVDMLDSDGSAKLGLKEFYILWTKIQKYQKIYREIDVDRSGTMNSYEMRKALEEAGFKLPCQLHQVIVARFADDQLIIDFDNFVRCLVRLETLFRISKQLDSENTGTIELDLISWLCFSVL

[4] = tested on: Streptococcus; assay: GAS UMAA2166 growth inhibition – luminescence, BacTiterGlo, counter-screen for streptokinase expression inhibitor project, dose response (AID 1915); assay type: functional, organism-based;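 further: potency for reduction of bacterial viability or growth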
[5] = target: T3, Heat shock factor protein 1 (Mus musculus, UniProt P38532); assay: decrease of HSF1-responsive luciferase luminescence – cell-based, NIH3T3, dose retest, confirmation (AID 2382); assay type: functional;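 further: NIH3T3 fibroblasts with HSF1-driven luciferase reporter stressed by proteasome inhibitor MG132; luminescence from HSF1-driven luciferase expression after 8 hours of MG132 stress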
T3 sequence (P38532 whole entry): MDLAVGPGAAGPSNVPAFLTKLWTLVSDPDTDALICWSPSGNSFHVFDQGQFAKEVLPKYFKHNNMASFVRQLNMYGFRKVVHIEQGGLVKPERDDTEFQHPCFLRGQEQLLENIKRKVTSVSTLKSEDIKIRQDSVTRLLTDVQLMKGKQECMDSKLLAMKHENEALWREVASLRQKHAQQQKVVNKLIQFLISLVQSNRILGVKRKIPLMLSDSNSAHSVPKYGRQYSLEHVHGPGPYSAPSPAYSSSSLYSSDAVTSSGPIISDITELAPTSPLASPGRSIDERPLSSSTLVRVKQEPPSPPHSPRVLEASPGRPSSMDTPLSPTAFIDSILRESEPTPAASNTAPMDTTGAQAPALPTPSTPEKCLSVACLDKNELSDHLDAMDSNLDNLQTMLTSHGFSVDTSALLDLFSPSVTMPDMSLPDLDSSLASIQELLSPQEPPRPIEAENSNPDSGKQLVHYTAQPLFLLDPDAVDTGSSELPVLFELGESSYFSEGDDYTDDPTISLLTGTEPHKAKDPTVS

[6] = target: T4, Protein skinhead-1 (Caenorhabditis elegans, UniProt P34707); assay type: functional
T4 sequence (P34707 whole entry): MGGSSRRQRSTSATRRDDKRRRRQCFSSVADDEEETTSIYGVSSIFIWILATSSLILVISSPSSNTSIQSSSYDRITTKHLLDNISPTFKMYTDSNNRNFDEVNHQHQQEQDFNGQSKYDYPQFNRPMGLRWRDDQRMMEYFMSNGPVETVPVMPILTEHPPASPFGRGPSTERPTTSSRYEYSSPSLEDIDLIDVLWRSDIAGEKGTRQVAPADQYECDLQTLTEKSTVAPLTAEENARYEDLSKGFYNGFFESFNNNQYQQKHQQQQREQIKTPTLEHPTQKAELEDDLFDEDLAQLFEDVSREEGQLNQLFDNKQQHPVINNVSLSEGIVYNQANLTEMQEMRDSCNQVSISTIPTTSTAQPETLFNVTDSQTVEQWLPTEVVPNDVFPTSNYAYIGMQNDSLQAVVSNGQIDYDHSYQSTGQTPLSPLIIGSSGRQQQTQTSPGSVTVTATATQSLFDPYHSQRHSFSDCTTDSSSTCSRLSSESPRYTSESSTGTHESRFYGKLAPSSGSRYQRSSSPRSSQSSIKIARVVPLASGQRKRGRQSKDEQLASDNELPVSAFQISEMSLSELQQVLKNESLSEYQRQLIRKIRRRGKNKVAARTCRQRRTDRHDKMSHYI

[7] = target: Luciferin 4-monooxygenase (Photinus pyralis, UniProt P08659); assay: inhibition of purified Photinus pyralis luciferase – biochemical, luminescence, dose response (AID 1891)
Luciferin 4-monooxygenase, sequence (P08659 whole entry): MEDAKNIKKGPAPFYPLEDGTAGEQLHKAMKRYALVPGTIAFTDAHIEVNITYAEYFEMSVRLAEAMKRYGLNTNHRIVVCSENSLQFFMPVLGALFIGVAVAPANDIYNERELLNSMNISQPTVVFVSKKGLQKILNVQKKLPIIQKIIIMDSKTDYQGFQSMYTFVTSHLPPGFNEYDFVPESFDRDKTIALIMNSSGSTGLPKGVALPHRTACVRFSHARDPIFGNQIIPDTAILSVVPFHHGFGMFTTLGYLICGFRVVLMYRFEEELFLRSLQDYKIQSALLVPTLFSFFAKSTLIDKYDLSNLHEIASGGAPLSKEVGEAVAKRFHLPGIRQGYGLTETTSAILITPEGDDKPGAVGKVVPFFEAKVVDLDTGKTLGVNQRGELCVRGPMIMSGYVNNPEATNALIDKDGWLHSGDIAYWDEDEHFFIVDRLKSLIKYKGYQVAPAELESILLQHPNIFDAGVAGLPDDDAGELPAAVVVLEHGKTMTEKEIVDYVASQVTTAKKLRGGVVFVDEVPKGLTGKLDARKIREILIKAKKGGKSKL

[8] = Luminescence Cell-Based Dose Confirmation HTS to Identify Inhibitors of Platelet Dense Granule Release. [Related pubchem assays: 1663 (Primary HTS), 1678 (Summary of Project)]; assay type: functional
[9] = reduction of Shn3 3'UTR-driven luciferase in osteoblasts – cell-based, Clone20 osteoblasts, firefly luciferase, cherry-picked, dose response (AID 624132); assay type: functional;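 further: firefly luciferase luminescence from reporter carrying the Shn3 3'UTR in osteoblasts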
[10] = loss of viability in HepG2 cells – cell-based, CellTiter-Glo, cherry-picked, cytotoxicity control for Shn3 inhibitor project, dose response (AID 624134); assay type: functional
[11] = non-specific 3'UTR reporter inhibition in Clone20-Shn3RL – cell-based, Renilla luciferase, cherry-picked, counter-screen for Shn3 inhibitor project, dose response (AID 624133); assay type: functional
[12] = Luminescence Cell-Based Dose Retest to Confirm Inhibitors of Cancer Stem Cells. [Related pubchem assays (depositor defined):AID2717, AID2721]; assay type: functional; conditions: Homo sapiens
[13] = viability of uninfected HEp-2 cells – cell-based, HTS, cytotoxicity control for RSV inhibitor project, dose response (AID 2410); assay type: functional; conditions: human respiratory syncytial virus
[14] = target: T5, Rac GTPase-activating protein 1 (Homo sapiens, UniProt Q9H0H5); assay: blockers of MgcRacGAP-driven Rac1 GTP hydrolysis – biochemical, ADP Hunter fluorescence, primary and confirmatory, confirmation (AID 624330); assay type: functional
T5 sequence (Q9H0H5 whole entry): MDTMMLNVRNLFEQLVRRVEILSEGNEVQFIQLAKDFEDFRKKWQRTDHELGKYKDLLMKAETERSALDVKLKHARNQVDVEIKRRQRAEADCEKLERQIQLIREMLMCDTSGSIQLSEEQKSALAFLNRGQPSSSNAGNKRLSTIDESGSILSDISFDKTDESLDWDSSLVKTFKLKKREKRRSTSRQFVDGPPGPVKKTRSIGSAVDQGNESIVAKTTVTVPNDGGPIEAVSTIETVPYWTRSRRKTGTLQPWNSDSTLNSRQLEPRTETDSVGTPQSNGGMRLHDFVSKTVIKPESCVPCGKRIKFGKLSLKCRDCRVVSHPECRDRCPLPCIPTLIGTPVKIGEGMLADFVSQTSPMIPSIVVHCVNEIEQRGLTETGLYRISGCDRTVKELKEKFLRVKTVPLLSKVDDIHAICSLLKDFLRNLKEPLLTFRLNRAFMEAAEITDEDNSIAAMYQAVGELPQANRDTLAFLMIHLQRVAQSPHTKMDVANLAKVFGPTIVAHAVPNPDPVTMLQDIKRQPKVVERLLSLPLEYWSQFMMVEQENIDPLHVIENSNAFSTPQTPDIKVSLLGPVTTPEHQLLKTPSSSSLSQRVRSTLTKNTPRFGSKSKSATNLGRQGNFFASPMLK

Which results are given for `CC1(C)c2ccccc2-n2c1cc1oc(=O)cc(O)c1c2=O`?
EC50 [1]: > 150 µM (not active); EC50 [2]: > 150 µM (not active); IC50 [3]: 1.02 µM (not active); EC50 [4]: > 150 µM (not active)

For `Cc1cc(C)c2oc(C(=O)Nc3ccc(S(=O)(=O)Nc4nccc(C)n4)cc3)cc(=O)c2c1`, which EC50 [5] is on record?
Its EC50 is > 195 µM (not active).

For `O=C(CN1CCN(C(=O)c2ccccc2)CC1)Nc1ncc(Br)cc1Br`, which EC50 [5] is on record?
Its EC50 is > 195 µM (not active).

What does the source list for `O=[N+]([O-])c1ccc(OC/C=C2\Oc3ccc([N+](=O)[O-])cc3C2N2CCOCC2)cc1` (stereo not drawn)?
IC50 [3]: 6.21 µM (not active); IC50 [6]: > 100 µM (inactive)

Which results are given for `Cc1ccc(C(=O)N/C(=C\c2cccc([N+](=O)[O-])c2)C(=O)NCc2ccncc2)cc1`?
EC50 [7]: > 112 µM (not active); EC50 [8]: 38.4 µM (active)

Which AC50 [9] does the source give for `O=S(=O)(c1cccs1)N1CCN(CCOc2ccc(Cl)cc2)CC1` here?
Its AC50 is 13.8 µM (active).

What about the AC50 [10] of the same compound?
Its AC50 is 37.6 µM (active).

And the AC50 [11]?
The AC50 was 23.9 µM (active).

Which AC50 [12] does the source give for `Oc1ccc(N=Nc2ccc(Br)cc2)c(O)c1` here?
Its AC50 is 4.2 µM (active).

Which EC50 [7] does the source give for `O=C(Cc1c[nH]c2ccccc12)N/N=C/c1ccccc1O` here?
The EC50 was > 112 µM (not active).

What about the EC50 [8] of the same compound?
Its EC50 is > 112 µM (not active).

For `COC(=O)C1(Cc2ccccc2)NC(c2ccccc2C)C2C(=O)N(c3ccc4c(c3)OCO4)C(=O)C21` (stereo not drawn), which EC50 [5] is on record?
Its EC50 is > 195 µM (not active).

What does the source list for `Cc1ccc(/C=C\c2[nH]ccc3c4ccccc4nc2-3)cc1`?
CC50 [13]: 28.9 µM (active); AC50 [12]: 17.4 µM (active)

With `CC(OC(=O)c1nsc(Cl)c1Cl)C(=O)NCc1ccc2c(c1)OCO2` (stereo not drawn) as the compound, how does the EC50 [5] read?
The EC50 was > 195 µM (not active).

With `CCN(CC)c1ccc(/C=C2/SC(=O)N(C(C)C)C2=O)o1` as the compound, how does the AC50 [9] read?
The AC50 was 3.46 µM (active).

What about the AC50 [10] of the same compound?
The AC50 was 58.9 µM (active).

What about the AC50 [11] of the same compound?
The AC50 was 7.5 µM (active).

What about the IC50 [14] of the same compound?
The IC50 was 48.2 µM (active).

Which AC50 [9] does the source give for `COC(=O)c1ccc(S(=O)(=O)N2CCCN(Cc3ccccc3)CC2)n1C` here?
Its AC50 is 51.1 µM (active).

And the AC50 [10]?
Its AC50 is 69.6 µM (active).

And the AC50 [11]?
The AC50 was 28 µM (active).

For `O=C(Nc1cccc2oc(=O)ccc12)c1ccc([N+](=O)[O-])cc1[N+](=O)[O-]`, which IC50 [3] is on record?
The IC50 was 5.83 µM (active).

Which EC50 [7] does the source give for `O=C1Nc2ccccc2C1=Nc1ccc(-c2nnc3n2CCCCC3)cc1` here?
The EC50 was > 112 µM (not active).

And the EC50 [8]?
The EC50 was > 112 µM (not active).

Which AC50 [12] does the source give for `COc1cc(/C=C2/CCC/C(=C\c3cc(O)c(OC)c(Cl)c3)C2=O)cc(Cl)c1O` here?
Its AC50 is 0.629 µM (active).

Which results are given for `COc1ccc(N(CC(=O)N/N=C/c2ccc(-c3ccc([N+](=O)[O-])cc3)o2)S(=O)(=O)c2ccc(C)cc2)cc1`?
EC50 [7]: > 112 µM (not active); EC50 [8]: > 112 µM (not active)

Which IC50 [3] does the source give for `COc1cc(Cl)c(C)cc1NC(=O)CNC(C)c1ccccc1OC` (stereo not drawn) here?
The IC50 was > 50 µM (not active).

Which EC50 [5] does the source give for `O=C(NCC(=O)N1CCN(c2ccccc2O)CC1)c1ccc(Br)o1` here?
Its EC50 is > 195 µM (not active).

With `COc1ccc(-n2c(C)c(C(C)=O)c(C(C)=O)c2C)cc1` as the compound, how does the EC50 [5] read?
The EC50 was > 195 µM (not active).

For `COc1ccccc1/C=N/NC(=S)NCc1ccco1`, which IC50 [3] is on record?
Its IC50 is 8.4 µM (active).

Which results are given for `Cc1ccc(-c2nc(NCc3ccco3)c3ccccc3n2)cc1`?
IC50 [3]: 7.69 µM (not active); AC50 [12]: 9.72 µM (active)

With `COc1ccc(CNC(=O)CCCn2nc([N+](=O)[O-])cc2C)cc1` as the compound, how does the IC50 [3] read?
Its IC50 is < 0.4 µM (not active).

Which IC50 [3] does the source give for `N#Cc1nc(COc2ccccc2)oc1N1CCN(c2cccc(Cl)c2)CC1` here?
The IC50 was 34.3 µM (not active).

With `O=C(Nc1ccccc1)C1=C[C@@H](c2ccc(C(F)(F)F)cc2)C[C@@H](OCc2ccc(CO)cc2)O1` as the compound, how does the AC50 [12] read?
The AC50 was 5.5 µM (active).

Which EC50 [5] does the source give for `COc1ccc(Cn2nnnc2CN2CCc3ccccc3C2)cc1` here?
Its EC50 is > 195 µM (not active).

With `CC(=O)NCc1cn2c(C)csc2n1` as the compound, how does the EC50 [7] read?
The EC50 was > 112 µM (not active).

And the EC50 [8]?
The EC50 was > 112 µM (not active).

Which EC50 [5] does the source give for `Cc1ccc(-c2nnc(SCC(=O)Nc3nccs3)n2N)cc1` here?
Its EC50 is > 195 µM (not active).

For `COc1cc(F)c(C2=CC(=O)C[C@H](c3ccc(Cl)cc3)C2)cc1F`, which AC50 [12] is on record?
The AC50 was 1.43 µM (active).

With `Cc1ccc(NC(=O)Cc2ccc(-n3cccc3)cc2)c(C)c1` as the compound, how does the EC50 [5] read?
Its EC50 is > 195 µM (not active).

— ChEMBL document CHEMBL1201862, “PubChem BioAssay data set” (2004)
